Experimental data published in patent US10463658B2, “Method of inhibiting FLT3 kinase” (AROG Pharmaceuticals, LLC, priority 2013, dated 2019).
Where a chain is given by its changes, count along the chain named.

What was measured:
FLT3 K663Q = target: T1, FLT3 K663Q (Homo sapiens, UniProt P36888, K663Q); test: KINOMEscan KdElect competitive binding assay, FLT3 K663Q; settings: tosylate salt; read-out: Binding Constant (Kd), FLT3 K663Q
T1 construct: host or cells: E. coli BL21-derived host (T7 phage) or HEK-293
T1 sequence (P36888 610-943 K663Q limits assumed): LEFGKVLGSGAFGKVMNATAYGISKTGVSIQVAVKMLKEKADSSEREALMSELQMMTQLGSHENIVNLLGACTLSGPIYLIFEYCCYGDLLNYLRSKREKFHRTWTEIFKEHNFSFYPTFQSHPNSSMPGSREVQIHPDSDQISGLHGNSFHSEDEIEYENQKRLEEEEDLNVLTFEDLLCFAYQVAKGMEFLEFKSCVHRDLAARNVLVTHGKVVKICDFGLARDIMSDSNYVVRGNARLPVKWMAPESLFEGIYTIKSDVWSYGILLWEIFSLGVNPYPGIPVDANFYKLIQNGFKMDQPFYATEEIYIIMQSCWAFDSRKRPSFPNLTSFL
Excerpt: (§1) Competitive binding assay.
(§2) The lysates were then centrifuged and filtered.

[1] = test system: Molm 13-RES-luc cells that expressed FLT3-ITD/D835Y; test: MTT assay in tandutinib-resistant Molm 13-RES-luc cells; type: cell-based; settings: Homo sapiens, tandutinib resistant Molm 13 cells, mean of 3 studies with 6 replicates each (n=18), read-out: IC50 pFLT3 (text: cell viability, MTT assay)
FLT3 non-autoinhibited = target: T2, FLT3 non-autoinhibited (Homo sapiens, UniProt P36888); test: KINOMEscan KdElect competitive binding assay, non-autoinhibited FLT3; settings: tosylate salt
T2 construct: host or cells: E. coli BL21-derived host (T7 phage) or HEK-293
T2 sequence (P36888 610-943 limits assumed): T1 sequence (P36888 610-943 K663Q limits assumed) with Q54K
Excerpt: as §1, §2

FLT3 TKD mutation D835Y = target: T3, FLT3 TKD mutation D835Y (Homo sapiens, UniProt P36888, D835Y); test: Direct enzyme phosphorylation assay (Millipore Kinase IC50 Profiler), FLT3 D835Y; type: biochemical; settings: tosylate salt; n=2; read-out: IC50 against the FLT3 TKD mutation D835Y
T3 construct: purchased Millipore
T3 sequence (P36888 27-993 D835Y): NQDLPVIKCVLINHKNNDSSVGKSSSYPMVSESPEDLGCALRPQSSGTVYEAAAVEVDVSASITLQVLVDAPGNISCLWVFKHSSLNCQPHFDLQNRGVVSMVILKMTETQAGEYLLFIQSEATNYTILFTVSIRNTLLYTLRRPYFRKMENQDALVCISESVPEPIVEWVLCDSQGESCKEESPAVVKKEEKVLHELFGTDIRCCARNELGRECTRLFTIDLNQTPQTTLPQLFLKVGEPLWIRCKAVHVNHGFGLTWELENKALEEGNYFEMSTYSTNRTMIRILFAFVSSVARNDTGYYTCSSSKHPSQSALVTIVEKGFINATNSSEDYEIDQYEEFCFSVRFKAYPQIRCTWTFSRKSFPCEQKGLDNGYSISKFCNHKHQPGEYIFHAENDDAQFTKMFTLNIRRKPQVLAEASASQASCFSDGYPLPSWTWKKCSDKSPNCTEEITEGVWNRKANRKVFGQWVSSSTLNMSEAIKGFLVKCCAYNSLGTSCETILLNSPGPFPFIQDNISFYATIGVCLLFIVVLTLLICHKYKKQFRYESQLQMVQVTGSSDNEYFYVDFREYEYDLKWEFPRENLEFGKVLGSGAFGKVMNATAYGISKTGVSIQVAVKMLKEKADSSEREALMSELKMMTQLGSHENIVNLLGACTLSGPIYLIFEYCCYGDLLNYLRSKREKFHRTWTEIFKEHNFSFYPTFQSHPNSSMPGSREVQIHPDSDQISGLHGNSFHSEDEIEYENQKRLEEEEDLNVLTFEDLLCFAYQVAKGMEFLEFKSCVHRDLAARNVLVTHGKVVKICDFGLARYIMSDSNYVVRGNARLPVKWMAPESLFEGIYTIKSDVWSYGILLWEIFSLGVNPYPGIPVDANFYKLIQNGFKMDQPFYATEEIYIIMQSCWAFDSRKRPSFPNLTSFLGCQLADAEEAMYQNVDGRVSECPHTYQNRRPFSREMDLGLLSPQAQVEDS
Description: Direct enzyme phosphorylation assay. The Millipore Kinase IC50 Profiler assay was used to screen the present invention against a panel of normal FLT3 and mutated FLT3 kinases. For assays of both kinases, the FLT3 enzyme was incubated with 8 mM of 3-(N-morpholino)propanesulfonic acid (MOPS) at a pH of 7.0, 0.2 mM Ethylenediaminetetraacetic acid (EDTA), 50 uM, a synthetic Abl peptide substrate […] (SEQ ID NO: 1), 10 mM MgAcetate and [γ-^33P-ATP]. The reaction was initiated by the addition of MgATp mix. The reaction mixture was incubated for 40 minutes at room temperature and halted by the addition of 3% phosphoric acid solution. 10 uL of the reaction solution was spotted on P30 filtermat and washed three times in 75 mM phosphoric acid for 5 minutes and then once in methanol prior to drying and scintillation counting. The scintillation values for each replicate, including positive and negative controls, were analyzed using XLFit version 5.1 to determine the IC50 values for the present invention against normal and mutated FLT3.

Kd (FLT3 K663Q): 0.62 nM | IC50 [1]: 3.3 nM | affinity shift between the non-autoinhibited and autoinhibited states of FLT3 (FLT3 non-autoinhibited): approximately 50 fold | Kd (FLT3 non-autoinhibited; average Kd, read-out: Binding Constant (Kd), FLT3 non-autoinhibited): 0.35 nM | IC50 (FLT3 TKD mutation D835Y): 3 nM
SMILES: COCCOc1ccc2c(c1)ncn2-c1ccc2cccc(N3CCC(N)CC3)c2n1 [CP-673,451]
